Data published in the supplement of paper PMC10307832.

Legend:
Test in all cases: relative viability (nuclei count vs DMSO), 5 days (fraction); higher = more cells survive
[1] = compound: CN(C)C[C@@H]1CCn2cc(c3ccccc32)C2=C(C(=O)NC2=O)c2cn(c3ccccc23)CCO1 [Ruboxistaurin] + CCNC(=O)c1noc(-c2cc(C(C)C)c(O)cc2O)c1-c1ccc(CN2CCOCC2)cc1 [Luminespib] (partner 0.01 µM)
Procedure, shortened: (§1)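 Lung cancer cell lines were pin-tool dosed in 1536-well plates on the day after seeding, with either a lone drug or a fixed anchor-drug dose plus five library-drug doses (not always all listed) in √10 steps. Nuclei were counted on 4× images after 5 days. Relative viability is the ratio of treated-well to vehicle-well nuclei counts, with each value a median of duplicate plates.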

[2] = compound: CN(C)C[C@@H]1CCn2cc(c3ccccc32)C2=C(C(=O)NC2=O)c2cn(c3ccccc23)CCO1 [Ruboxistaurin] + CC(=O)Nc1cccc(-n2c(=O)n(C3CC3)c(=O)c3c(Nc4ccc(I)cc4F)n(C)c(=O)c(C)c32)c1 [Trametinib] (partner 0.02 µM)
Procedure, shortened: as §1

[3] = compound: CN(C)C[C@@H]1CCn2cc(c3ccccc32)C2=C(C(=O)NC2=O)c2cn(c3ccccc23)CCO1 [Ruboxistaurin] + CS(=O)(=O)N1CCN(Cc2cc3nc(-c4cccc5[nH]ncc45)nc(N4CCOCC4)c3s2)CC1 [Pictilisib] (partner 1 µM)
Procedure, shortened: as §1

[4] = compound: CN(C)C[C@@H]1CCn2cc(c3ccccc32)C2=C(C(=O)NC2=O)c2cn(c3ccccc23)CCO1 [Ruboxistaurin] + CC(=O)c1c(C)c2cnc(Nc3ccc(N4CCNCC4)cn3)nc2n(C2CCCC2)c1=O [Palbociclib] (partner 0.5 µM)
Procedure, shortened: as §1

[5] = compound: CN(C)C[C@@H]1CCn2cc(c3ccccc32)C2=C(C(=O)NC2=O)c2cn(c3ccccc23)CCO1 [Ruboxistaurin] + CS(=O)(=O)CCNCc1ccc(-c2ccc3ncnc(Nc4ccc(OCc5cccc(F)c5)c(Cl)c4)c3c2)o1 [Lapatinib] (partner 2 µM)
Procedure, shortened: as §1

LOU-NH91
relative viability ([1]; first compound 0.08 µM): 0.286 | relative viability ([1]; first compound 0.8 µM): 0.298 | relative viability ([1]; first compound 2.53 µM): 0.361 | relative viability ([1]; first compound 8 µM): 0.369 | relative viability ([2]; first compound 0.08 µM): 0.802 | relative viability ([2]; first compound 0.8 µM): 0.751 | relative viability ([2]; first compound 2.53 µM): 0.807 | relative viability ([2]; first compound 8 µM): 0.773 | relative viability ([3]; first compound 0.08 µM): 0.554 | relative viability ([3]; first compound 0.8 µM): 0.494 | relative viability ([3]; first compound 2.53 µM): 0.526 | relative viability ([3]; first compound 8 µM): 0.502 | relative viability ([4]; first compound 0.08 µM): 0.536 | relative viability ([4]; first compound 0.8 µM): 0.518 | relative viability ([4]; first compound 2.53 µM): 0.52 | relative viability ([4]; first compound 8 µM): 0.571 | relative viability ([5]; first compound 0.08 µM): 0.785 | relative viability ([5]; first compound 0.8 µM): 0.72 | relative viability ([5]; first compound 2.53 µM): 0.851 | relative viability ([5]; first compound 8 µM): 0.698

LU99A
relative viability ([1]; first compound 0.08 µM): 0.239 | relative viability ([1]; first compound 0.8 µM): 0.224 | relative viability ([1]; first compound 2.53 µM): 0.265 | relative viability ([1]; first compound 8 µM): 0.24 | relative viability ([2]; first compound 0.08 µM): 0.492 | relative viability ([2]; first compound 0.8 µM): 0.509 | relative viability ([2]; first compound 2.53 µM): 0.508 | relative viability ([2]; first compound 8 µM): 0.472 | relative viability ([3]; first compound 0.08 µM): 0.338 | relative viability ([3]; first compound 0.8 µM): 0.275 | relative viability ([3]; first compound 2.53 µM): 0.242 | relative viability ([3]; first compound 8 µM): 0.21 | relative viability ([4]; first compound 0.08 µM): 0.473 | relative viability ([4]; first compound 0.8 µM): 0.388 | relative viability ([4]; first compound 2.53 µM): 0.482 | relative viability ([4]; first compound 8 µM): 0.31 | relative viability ([5]; first compound 0.08 µM): 1.09 | relative viability ([5]; first compound 0.8 µM): 0.967 | relative viability ([5]; first compound 2.53 µM): 0.94 | relative viability ([5]; first compound 8 µM): 0.761

LXF-289
relative viability ([1]; first compound 0.08 µM): 0.679 | relative viability ([1]; first compound 0.8 µM): 0.628 | relative viability ([1]; first compound 2.53 µM): 0.677 | relative viability ([1]; first compound 8 µM): 0.754 | relative viability ([2]; first compound 0.08 µM): 0.653 | relative viability ([2]; first compound 0.8 µM): 0.631 | relative viability ([2]; first compound 2.53 µM): 0.66 | relative viability ([2]; first compound 8 µM): 0.684 | relative viability ([3]; first compound 0.08 µM): 0.815 | relative viability ([3]; first compound 0.8 µM): 0.718 | relative viability ([3]; first compound 2.53 µM): 0.736 | relative viability ([3]; first compound 8 µM): 0.647 | relative viability ([4]; first compound 0.08 µM): 0.589 | relative viability ([4]; first compound 0.8 µM): 0.542 | relative viability ([4]; first compound 2.53 µM): 0.571 | relative viability ([4]; first compound 8 µM): 0.588 | relative viability ([5]; first compound 0.08 µM): 0.914 | relative viability ([5]; first compound 0.8 µM): 0.88 | relative viability ([5]; first compound 2.53 µM): 0.886 | relative viability ([5]; first compound 8 µM): 0.864

NCI-H23
relative viability ([1]; first compound 0.08 µM): 0.23 | relative viability ([1]; first compound 0.8 µM): 0.213 | relative viability ([1]; first compound 2.53 µM): 0.225 | relative viability ([1]; first compound 8 µM): 0.2 | relative viability ([2]; first compound 0.08 µM): 0.375 | relative viability ([2]; first compound 0.8 µM): 0.346 | relative viability ([2]; first compound 2.53 µM): 0.409 | relative viability ([2]; first compound 8 µM): 0.32 | relative viability ([3]; first compound 0.08 µM): 0.428 | relative viability ([3]; first compound 0.8 µM): 0.374 | relative viability ([3]; first compound 2.53 µM): 0.392 | relative viability ([3]; first compound 8 µM): 0.38 | relative viability ([4]; first compound 0.08 µM): 0.492 | relative viability ([4]; first compound 0.8 µM): 0.445 | relative viability ([4]; first compound 2.53 µM): 0.53 | relative viability ([4]; first compound 8 µM): 0.461 | relative viability ([5]; first compound 0.08 µM): 1.38 | relative viability ([5]; first compound 0.8 µM): 0.97 | relative viability ([5]; first compound 2.53 µM): 1.21 | relative viability ([5]; first compound 8 µM): 0.819

NCI-H322M
relative viability ([1]; first compound 0.08 µM): 0.836 | relative viability ([1]; first compound 0.8 µM): 0.718 | relative viability ([1]; first compound 2.53 µM): 0.766 | relative viability ([1]; first compound 8 µM): 0.399 | relative viability ([2]; first compound 0.08 µM): 0.538 | relative viability ([2]; first compound 0.8 µM): 0.477 | relative viability ([2]; first compound 2.53 µM): 0.535 | relative viability ([2]; first compound 8 µM): 0.404 | relative viability ([3]; first compound 0.08 µM): 0.553 | relative viability ([3]; first compound 0.8 µM): 0.484 | relative viability ([3]; first compound 2.53 µM): 0.432 | relative viability ([3]; first compound 8 µM): 0.385 | relative viability ([4]; first compound 0.08 µM): 0.492 | relative viability ([4]; first compound 0.8 µM): 0.47 | relative viability ([4]; first compound 2.53 µM): 0.454 | relative viability ([4]; first compound 8 µM): 0.384 | relative viability ([5]; first compound 0.08 µM): 0.589 | relative viability ([5]; first compound 0.8 µM): 0.54 | relative viability ([5]; first compound 2.53 µM): 0.543 | relative viability ([5]; first compound 8 µM): 0.543

NCI-H441
relative viability ([1]; first compound 0.08 µM): 0.407 | relative viability ([1]; first compound 0.8 µM): 0.276 | relative viability ([1]; first compound 2.53 µM): 0.355 | relative viability ([1]; first compound 8 µM): 0.338 | relative viability ([2]; first compound 0.08 µM): 0.523 | relative viability ([2]; first compound 0.8 µM): 0.453 | relative viability ([2]; first compound 2.53 µM): 0.529 | relative viability ([2]; first compound 8 µM): 0.366 | relative viability ([3]; first compound 0.08 µM): 0.475 | relative viability ([3]; first compound 0.8 µM): 0.392 | relative viability ([3]; first compound 2.53 µM): 0.566 | relative viability ([3]; first compound 8 µM): 0.356 | relative viability ([4]; first compound 0.08 µM): 0.234 | relative viability ([4]; first compound 0.8 µM): 0.174 | relative viability ([4]; first compound 2.53 µM): 0.248 | relative viability ([4]; first compound 8 µM): 0.202

NCI-H522
relative viability ([1]; first compound 0.08 µM): 1.23 | relative viability ([1]; first compound 0.8 µM): 1.1 | relative viability ([1]; first compound 2.53 µM): 0.974 | relative viability ([1]; first compound 8 µM): 1.04 | relative viability ([2]; first compound 0.08 µM): 0.767 | relative viability ([2]; first compound 0.8 µM): 0.586 | relative viability ([2]; first compound 2.53 µM): 0.754 | relative viability ([2]; first compound 8 µM): 0.764 | relative viability ([4]; first compound 0.08 µM): 1.06 | relative viability ([4]; first compound 0.8 µM): 1.06 | relative viability ([4]; first compound 2.53 µM): 1.21 | relative viability ([4]; first compound 8 µM): 1.25

NCI-H596
relative viability ([1]; first compound 0.08 µM): 0.93 | relative viability ([1]; first compound 0.8 µM): 0.943 | relative viability ([1]; first compound 2.53 µM): 1.26 | relative viability ([1]; first compound 8 µM): 0.794 | relative viability ([2]; first compound 0.08 µM): 0.892 | relative viability ([2]; first compound 0.8 µM): 0.766 | relative viability ([2]; first compound 2.53 µM): 0.727 | relative viability ([2]; first compound 8 µM): 0.796 | relative viability ([3]; first compound 0.08 µM): 0.472 | relative viability ([3]; first compound 0.8 µM): 0.352 | relative viability ([3]; first compound 2.53 µM): 0.374 | relative viability ([3]; first compound 8 µM): 0.346 | relative viability ([5]; first compound 0.08 µM): 1.08 | relative viability ([5]; first compound 0.8 µM): 0.965 | relative viability ([5]; first compound 2.53 µM): 1.04 | relative viability ([5]; first compound 8 µM): 0.848

SW 900
relative viability ([1]; first compound 0.08 µM): 0.216 | relative viability ([1]; first compound 0.8 µM): 0.194 | relative viability ([1]; first compound 2.53 µM): 0.177 | relative viability ([1]; first compound 8 µM): 0.177 | relative viability ([2]; first compound 0.08 µM): 0.785 | relative viability ([2]; first compound 0.8 µM): 0.972 | relative viability ([2]; first compound 2.53 µM): 0.912 | relative viability ([2]; first compound 8 µM): 0.693 | relative viability ([4]; first compound 0.08 µM): 0.598 | relative viability ([4]; first compound 0.8 µM): 0.499 | relative viability ([4]; first compound 2.53 µM): 0.681 | relative viability ([4]; first compound 8 µM): 0.553
